Laboratory results reported in patent publication US20040197859A1, “Isolated dna molecules encoding humanized calcitonin gene-related peptide receptor, related non-human transgenic animals and assay methods” (priority 2001, published 2004).

How the values were obtained:
rCRLR/rRAMP1 (rat) = rCRLR/rRAMP1 (rat) (UniProt Q63118); experiment: competitive radioligand binding against 10 pM 125I-hCGRP, membranes of transfected 293 EBNA cells
[1] = target: T1, rCRLR/rRAMP1 (native rat CGRP receptor) (Rattus norvegicus, UniProt Q63118+Q9JJ74); experiment: competitive 125I-hCGRP binding, membranes expressing rCRLR/rRAMP1
T1 construct: expressed in transfected cells; host or cells: 293 EBNA cells, transient co-transfection, membranes
Experimental: (§1) Cell Culture and DNA Transfection—293 EBNA cells were cultured in DMEM with 4.5 g/L glucose, 1 mM sodium pyruvate and 2 mM glutamine supplemented with 10% Fetal Bovine Serum (FBS), 100 units/mL penicillin and 100 μg/mL streptomycin, and maintained at 37° C. and 95% humidity. Cells were subcultured by treatment with 0.25% trypsin with 0.1% EDTA in HBSS.
(§2) Twenty-four hours prior to transfection, the cells were seeded at 2.0×10^7/dish in 500 cm^2 dishes. The following day, the cells were re-fed with fresh growth medium 1 hour before transfection. Transfections were performed by combining 60 μg/dish DNA with 180 μg/dish Lipofectamine 2000 (Life Technologies). cDNA's for CRLR and RAMP1 in the mammalian expression vector pcDNA3.1 were co-transfected in equal amounts. The transfection cocktail was added directly to the medium and this mixture was replaced with fresh medium 24 hours later. The cells were harvested for membranes 48 hours post-transfection.
(§3) Membrane Preparation and Radioligand Binding Studies—Transiently transfected 293 EBNA cells were washed once with PBS and harvested in harvest buffer containing 50 mM HEPES, 1 mM EDTA and Complete protease inhibitors (Roche).

rCRLR/hRAMP1 = target: T2, rCRLR/hRAMP1 (UniProt O60894+Q63118); experiment: competitive 125I-hCGRP binding, membranes expressing hybrid rCRLR/hRAMP1; design: species or system rat CRLR, human RAMP1; conditions: Table 4
T2 construct: expressed in transfected cells; host or cells: 293 EBNA cells, transient co-transfection, membranes
Experimental: as §1
as §2, with “post-transfection. […]” for “post-transfection.”
For binding assays, 1.5-25 μg of membranes (dependent upon receptor expression levels) were incubated for 3 hours at room temperature in binding buffer (10 mM HEPES, 5 mM MgCl2, 0.2% BSA) containing 10 pM ^125I-hCGRP (Amersham) in a total volume of 1 mL. […] Data were analyzed by using GraphPad Prism.

rCRLR/Chimera 1 = target: T3, rCRLR/Chimera 1 (Rattus norvegicus, UniProt Q63118+Q9JJ74, D29E/D31N/E46V/G64R/I36L/I51V/K45Q/K53E/K61R/P30A/Q37R/R28Q/R43Q/S42T/T34A/T50A/V24T); experiment: competitive 125I-hCGRP binding, membranes expressing rCRLR with RAMP1 Chimera 1; design: species or system rat CRLR, human/rat chimeric RAMP1; conditions: Table 5; rCRLR/Chimera 1 (first 66 aa of rRAMP1 replaced with human)
T3 construct: expressed in transfected cells; host or cells: 293 EBNA cells, transient co-transfection, membranes
From the text: Two human/rat chimeric RAMP1 cDNAs were constructed by using restriction fragments of the corresponding native cDNAs. Chimera 1 was created by replacing the nucleotides coding for the first 66 amino acids of rRAMP1 with the corresponding nucleotides of hRAMP1 by using the BsgI restriction site along with a NheI site located in the cloning vector. Chimera 2 was created by replacing the nucleotides coding for the first 112 amino acids of rRAMP1 with the corresponding nucleotides of hRAMP1 by using the SanDI restriction site along with a NheI site located in the cloning vector. Cell Culture and DNA Transfection-293 EBNA cells were cultured in DMEM with 4.5 g/L glucose, 1 mM sodium pyruvate and 2 mM glutamine supplemented with 10% Fetal Bovine Serum (FBS), 100 units/mL penicillin and 100 μg/mL streptomycin, and maintained at 37° C. and 95% humidity. Cells were subcultured by treatment with 0.25% trypsin with 0.1% EDTA in HBSS. Twenty-four hours prior to transfection, the cells were seeded at 2.0×10^7/dish in 500 cm^2 dishes. The following day, the cells were re-fed with fresh growth medium 1 hour before transfection. Transfections were performed by combining 60 μg/dish DNA with 180 μg/dish Lipofectamine 2000 (Life Technologies). cDNA's for CRLR and RAMP1 in the mammalian expression vector pcDNA3.1 were co-transfected in equal amounts. […] Data were analyzed by using GraphPad Prism. […]

rCRLR/rK74W RAMP1 = target: T4, rCRLR/rK74W RAMP1 (Rattus norvegicus, UniProt Q63118+Q9JJ74, K74W); experiment: competitive 125I-hCGRP binding, membranes expressing rCRLR and mutant rK74W RAMP1; conditions: Table 6
T4 construct: and the rRAMP1 expression vector construct as template; expressed in transfected cells; host or cells: 293 EBNA cells, transient co-transfection, membranes
Experimental: Rat RAMP1 site-directed mutagenesis was performed by using the Quick Change Site-directed Mutagenesis Kit (Stratagene) according to the manufacturer's instructions. […] of rRAMP1 was replaced with the corresponding human/marmoset amino acid tryptophan utilizing two complementary mutant oligonucleotide primers ([NT] ID NO:27] and [NT] ID NO:28]) and the rRAMP1 expression vector construct as template. This mutation was accomplished by substituting the codon TGG corresponding to tryptophan (r[…] RAMP1). All constructs were sequenced bidirectionally with 100% coverage in each direction. Cell Culture and DNA Transfection-293 EBNA cells were cultured in DMEM with 4.5 g/L glucose, 1 mM sodium pyruvate and 2 mM glutamine supplemented with 10% Fetal Bovine Serum (FBS), 100 units/mL penicillin and 100 μg/mL streptomycin, and maintained at 37° C. and 95% humidity. Cells were subcultured by treatment with 0.25% trypsin with 0.1% EDTA in HBSS. Twenty-four hours prior to transfection, the cells were seeded at 2.0×10^7/dish in 500 cm^2 dishes. The following day, the cells were re-fed with fresh growth medium 1 hour before transfection. Transfections were performed by combining 60 μg/dish DNA with 180 μg/dish Lipofectamine 2000 (Life Technologies). cDNA's for CRLR and RAMP1 in the mammalian expression vector pcDNA3.1 were co-transfected in equal amounts. […] Data were analyzed by using GraphPad Prism. […]

[2] = target: T5, mCRLR/mRAMP1 (native mouse receptor) (Mus musculus, UniProt Q9R1W5+Q9WTJ5); experiment: competitive binding, membranes expressing mCRLR/mRAMP1; conditions: Table 7
T5 construct: expressed in transfected cells
Experimental: as §1, §2, §3

mCRLR/mK74W RAMP1 = target: T6, mCRLR/mK74W RAMP1 (Mus musculus, UniProt Q9R1W5+Q9WTJ5, K74W); experiment: competitive binding, membranes expressing mCRLR and mutant mK74W RAMP1; conditions: Table 7
T6 construct: The mouse RAMP1 expression vector construct was used as template; expressed in transfected cells
Experimental: as §1, §2, §3

human CGRP receptor = human CGRP receptor (Homo sapiens, UniProt O60894+Q16602); conditions: cited from earlier work

Molecule | IC50 (rCRLR/rRAMP1 (rat)) | IC50 ([1]; Table 4) | IC50 ([1]; Table 6) | IC50 (rCRLR/hRAMP1) | IC50 (rCRLR/Chimera 1) | IC50 (rCRLR/rK74W RAMP1) | IC50 [2] | IC50 (mCRLR/mK74W RAMP1) | higher affinity for the human CGRP receptor than for the rat receptor (human CGRP receptor; human vs rat, Doods et al.) | lower affinity for CGRP receptors from rat, rabbit, dog, and guinea pig (human CGRP receptor; versus human CGRP receptor, Doods et al. 2000)
CGRP8-37 (peptide) | 2 nM | – | – | – | – | – | – | – | – | –
NCCCC[C@H](NC(=O)[C@@H](Cc1cc(Br)c(O)c(Br)c1)NC(=O)N1CCC(N2Cc3ccccc3NC2=O)CC1)C(=O)N1CCN(c2ccncc2)CC1 [BIBN4096BS] | – | 6.9 nM | 5.5 nM | 0.41 nM | 4.8 nM | 0.08 nM | 8.5 nM | 0.1 nM | 200 fold | 200 fold
